Laboratory results from PubChem BioAssay AID1963972 (Molecular Pharmacology Branch, DTP, NCI, 2024).

Test system: 945468-187-T-J2-PDC spheroids viability
Test: Anticancer human tumor 945468-187-T-J2-PDC patient-derived rectal carcinoma cell line growth inhibition [PI3K]
Conditions: spheroids with HUVEC and MSC; for IC50: curve of first compound; for viability, T/C: stronger effect = lower value; active means viability on the fitted dose curve at most 10% of control; inactive means the rest
Procedure, shortened: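 We assembled tumor spheroids that included a stromal compartment of HUVEC and MSCs, then exposed them to targeted agents alone and together with PI3K pathway inhibitors. Concentration series descended by half-log from clinically achievable Cmax levels. Viability served as the endpoint.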

[1] = second compound 0.00316 µM, first compound 0.0316 µM
[2] = second compound 0.00316 µM, first compound 0.1 µM
[3] = second compound 0.00316 µM, first compound 0.316 µM
[4] = second compound 0.00316 µM, first compound 1 µM
[5] = second compound 0.00316 µM, first compound 3.16 µM
[6] = second compound 0.00316 µM, first compound 10 µM
[7] = second compound 0.01 µM, first compound 0.0316 µM
[8] = second compound 0.01 µM, first compound 0.1 µM
[9] = second compound 0.01 µM, first compound 0.316 µM
[10] = second compound 0.01 µM, first compound 1 µM
[11] = second compound 0.01 µM, first compound 3.16 µM
[12] = second compound 0.01 µM, first compound 10 µM
[13] = second compound 0.0316 µM, first compound 0.0316 µM
[14] = second compound 0.0316 µM, first compound 0.1 µM
[15] = second compound 0.0316 µM, first compound 0.316 µM
[16] = second compound 0.0316 µM, first compound 1 µM
[17] = second compound 0.0316 µM, first compound 3.16 µM
[18] = second compound 0.0316 µM, first compound 10 µM
[19] = second compound 0.1 µM, first compound 0.0316 µM
[20] = second compound 0.1 µM, first compound 0.1 µM
[21] = second compound 0.1 µM, first compound 0.316 µM
[22] = second compound 0.1 µM, first compound 1 µM
[23] = second compound 0.1 µM, first compound 3.16 µM
[24] = second compound 0.1 µM, first compound 10 µM
[25] = second compound 0.316 µM, first compound 0.0316 µM
[26] = second compound 0.316 µM, first compound 0.1 µM
[27] = second compound 0.316 µM, first compound 0.316 µM
[28] = second compound 0.316 µM, first compound 1 µM
[29] = second compound 0.316 µM, first compound 3.16 µM
[30] = second compound 0.316 µM, first compound 10 µM
[31] = second compound 1 µM, first compound 0.0316 µM
[32] = second compound 1 µM, first compound 0.1 µM
[33] = second compound 1 µM, first compound 0.316 µM
[34] = second compound 1 µM, first compound 1 µM
[35] = second compound 1 µM, first compound 3.16 µM
[36] = second compound 1 µM, first compound 10 µM
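Further: spheroids exposed to compounds for seven days before reading.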

CC(Cn1ccc(-c2ccc(C#N)c(Cl)c2)n1)NC(=O)c1cc(C(C)O)[nH]n1 (centres undefined) + COc1c(OCCCN2CCOCC2)ccc2c3n(c(=NC(=O)c4cnc(N)nc4)nc12)CCN3
> 10 µM: IC50 (second compound 0.00316 µM) | IC50 (second compound 0.01 µM) | IC50 (second compound 0.0316 µM) | IC50 (second compound 0.1 µM)
inactive: viability, T/C [1] 85.6% | viability, T/C [2] 112% | viability, T/C [3] 124% | viability, T/C [4] 94.6% | viability, T/C [5] 92.2% | viability, T/C [6] 114% | viability, T/C [7] 91.3% | viability, T/C [8] 104% | viability, T/C [9] 117% | viability, T/C [10] 115% | viability, T/C [11] 105% | viability, T/C [12] 108% | viability, T/C [13] 90.7% | viability, T/C [14] 114% | viability, T/C [15] 113% | viability, T/C [16] 101% | viability, T/C [17] 108% | viability, T/C [18] 89.3% | viability, T/C [19] 79.4% | viability, T/C [20] 95% | viability, T/C [21] 81.5% | viability, T/C [22] 94.3% | viability, T/C [23] 84.8% | viability, T/C [24] 87% | viability, T/C [25] 40.8% | viability, T/C [26] 33.2% | viability, T/C [27] 49% | viability, T/C [28] 39.2% | viability, T/C [29] 42.5% | viability, T/C [30] 48.1% | viability, T/C [31] 21.3% | viability, T/C [32] 23.5% | viability, T/C [33] 22.9% | viability, T/C [34] 22% | viability, T/C [35] 24.3% | viability, T/C [36] 25.2%
< 0.0316 µM: IC50 (second compound 0.316 µM) | IC50 (second compound 1 µM)

Cn1nccc1Nc1nccc(-c2ccn(C(CO)c3ccc(Cl)c(F)c3)c(=O)c2)n1 (centres undefined) + COc1c(OCCCN2CCOCC2)ccc2c3n(c(=NC(=O)c4cnc(N)nc4)nc12)CCN3
< 0.0316 µM: IC50 (second compound 0.316 µM) | IC50 (second compound 1 µM)
inactive: viability, T/C [1] 117% | viability, T/C [2] 108% | viability, T/C [3] 98.9% | viability, T/C [4] 83.7% | viability, T/C [5] 90.9% | viability, T/C [6] 80.7% | viability, T/C [7] 99% | viability, T/C [8] 93.7% | viability, T/C [9] 90.1% | viability, T/C [10] 136% | viability, T/C [11] 127% | viability, T/C [12] 84.2% | viability, T/C [13] 91.9% | viability, T/C [14] 102% | viability, T/C [15] 100% | viability, T/C [16] 89.1% | viability, T/C [17] 93.5% | viability, T/C [18] 89.2% | viability, T/C [19] 71% | viability, T/C [20] 75.9% | viability, T/C [21] 81.1% | viability, T/C [22] 82.2% | viability, T/C [23] 84.3% | viability, T/C [24] 64.9% | viability, T/C [25] 39.8% | viability, T/C [26] 45.6% | viability, T/C [27] 45.3% | viability, T/C [28] 41.7% | viability, T/C [29] 33.4% | viability, T/C [30] 27.8% | viability, T/C [31] 18.1% | viability, T/C [32] 19.8% | viability, T/C [33] 21.8% | viability, T/C [34] 18.6% | viability, T/C [35] 18.6% | viability, T/C [36] 16.8%
> 10 µM: IC50 (second compound 0.00316 µM) | IC50 (second compound 0.01 µM) | IC50 (second compound 0.0316 µM) | IC50 (second compound 0.1 µM)
